Where two headings read alike, the source gives them in different places.
What was measured:
Test in all cases: NCI 60 cell line screen, sulforhodamine B, 48 h
Assay type in all cases: cell-based, human
A549/ATCC = conditions: Non-Small Cell Lung Cancer
Description: (§1) A detailed description of the screening procedure can be found at hypertext transfer protocol (http://) “dtp.nci.nih.gov/branches/btb/ivclsp.html.”
(§2) In brief, each of the 60 human tumor cell lines were grown in RPMI 1640 medium, supplemented with 5% fetal bovine serum and 2 mM L-glutamine. Cells were plated at their appropriate density in 96-well microtiter plates and incubated at 37° C., 5% CO2, 95% air and 100% relative humidity. […] Cells were incubated for an additional 48 hours and a sulforhodamine B protein assay was used to estimate cell viability or growth.

ACHN = conditions: Renal Cancer
Description: as §1, §2

BT-459 = tested on: BT-459
Description: as §1, §2

CCRF-CEM = conditions: Leukemia
Description: as §1, §2

COLO 205 = conditions: COLO 205, Colon Cancer
Description: as §1, §2

DU-145 = tested on: DU-145
Description: as §1, §2

HCC-2998 = tested on: HCC-2998
Description: as §1, §2

HCT-116 = conditions: HCT-116, Colon Cancer
Description: as §1, §2

HDP-62 = conditions: HDP-62, Non-Small Cell Lung Cancer
Description: as §1, §2

K-562 = conditions: K-562, Leukemia
Description: as §1, §2

KM12 = conditions: KM12, Colon Cancer
Description: as §1, §2

LOX IMVI = conditions: Melanoma
Description: as §1, §2

MALME-3M = conditions: Melanoma
Description: as §1, §2

MCF7 = conditions: MCF7, Breast Cancer
Description: as §1, §2

NCI-H322M = conditions: Non-Small Cell Lung Cancer
Description: as §1, §2

OVCAR-4 = conditions: OVCAR-4, Ovarian Cancer
Description: as §1, §2

OVCAR-5 = conditions: OVCAR-5, Ovarian Cancer
Description: as §1, §2

OVCAR-8 = conditions: OVCAR-8, Ovarian Cancer
Description: as §1, §2

PC-3 = tested on: PC-3
Description: as §1, §2

SF-268 = conditions: SF-268, CNS Cancer
Description: as §1, §2

SF-295 = conditions: SF-295, CNS Cancer
Description: as §1, §2

SK-MEL-21 = conditions: for CC50: Homo sapiens
Description: as §1, §2

SK-OV-3 = conditions: SK-OV-3, Ovarian Cancer
Description: as §1, §2

SN12C = conditions: Renal Cancer
Description: as §1, §2

SNB-75 = conditions: SNB-75, CNS Cancer
Description: as §1, §2

SR = conditions: Leukemia
Description: as §1, §2

SW-620 = conditions: SW-620, Colon Cancer
Description: as §1, §2

T-47D = tested on: T-47D
Description: as §1, §2

T86-0 = tested on: T86-0
Description: as §1, §2

TK-10 = conditions: TK-10, Renal Cancer
Description: as §1, §2

U251 = conditions: U251, CNS Cancer
Description: as §1, §2

UACC-62 = tested on: UACC-62
Description: as §1, §2

[1] = Homo sapiens, 60 cell, read-out: Log10 LC50 (converted)

C[C@@]12OC(=O)[C@]1([C@@H](O)[C@@H]1C=CCCC1)NC(=O)[C@@H]2CCCl [Formula II-16, Salinosporamide A]
Log10 G150 (A549/ATCC): <-8.00 Molar
Log10 TGI (A549/ATCC): -4.70 Molar
Log10 G150 (ACHN): <-8.00 Molar
Log10 TGI (ACHN): -5.27 Molar
Log10 G150 (BT-459; BT-459, Breast Cancer): <-8.00 Molar
Log10 TGI (BT-459; BT-459, Breast Cancer): <-8.00 Molar
CC50 (BT-459; [1]): 60.3 nM
Log10 G150 (CCRF-CEM): <-8.00 Molar
Log10 TGI (CCRF-CEM): <-8.00 Molar
Log10 G150 (COLO 205): <-8.00 Molar
Log10 TGI (COLO 205): -6.19 Molar
Log10 G150 (DU-145; DU-145, Prostate Cancer): <-8.00 Molar
Log10 TGI (DU-145; DU-145, Prostate Cancer): >-4.00 Molar
CC50 (DU-145; Homo sapiens, DU-145, read-out: Log10 LC50 (converted)): > 100000 nM
Log10 G150 (HCC-2998; HCC-2998, Colon Cancer): <-8.00 Molar
Log10 TGI (HCC-2998; HCC-2998, Colon Cancer): <-8.00 Molar
CC50 (HCC-2998; Homo sapiens, HCC 2998, read-out: Log10 LC50 (converted)): 17.8 nM
Log10 G150 (HCT-116): <-8.00 Molar
Log10 TGI (HCT-116): -7.14 Molar
Log10 G150 (HDP-62): <-8.00 Molar
Log10 TGI (HDP-62): -4.89 Molar
Log10 G150 (K-562): <-8.00 Molar
Log10 TGI (K-562): -5.59 Molar
Log10 G150 (KM12): <-8.00 Molar
Log10 TGI (KM12): -6.00 Molar
Log10 G150 (LOX IMVI): <-8.00 Molar
Log10 TGI (LOX IMVI): -7.87 Molar
Log10 G150 (MALME-3M): <-8.00 Molar
Log10 TGI (MALME-3M): <-8.00 Molar
Log10 G150 (MCF7): <-8.00 Molar
Log10 TGI (MCF7): >-4.00 Molar
Log10 G150 (NCI-H322M): <-8.00 Molar
Log10 TGI (NCI-H322M): -5.48 Molar
Log10 G150 (OVCAR-4): <-8.00 Molar
Log10 TGI (OVCAR-4): <-8.00 Molar
Log10 G150 (OVCAR-5): <-8.00 Molar
Log10 TGI (OVCAR-5): -7.28 Molar
Log10 G150 (OVCAR-8): <-8.00 Molar
Log10 TGI (OVCAR-8): -7.70 Molar
CC50 (PC-3; Homo sapiens, PC-3, read-out: Log10 LC50 (converted)): 11700 nM
Log10 G150 (PC-3; PC-3, Prostate Cancer): <-8.00 Molar
Log10 TGI (PC-3; PC-3, Prostate Cancer): -5.81 Molar
Log10 G150 (SF-268): <-8.00 Molar
Log10 TGI (SF-268): -6.92 Molar
Log10 G150 (SF-295): <-8.00 Molar
Log10 TGI (SF-295): <-8.00 Molar
CC50 (SK-MEL-21; 60 cell, read-out: Log10 LC50 (converted)): < 10 nM
CC50 (SK-MEL-21; SK-MEL-28, read-out: LC50): < 10 nM
Log10 G150 (SK-MEL-21; SK-MEL-21, Melanoma): <-8.00 Molar
Log10 TGI (SK-MEL-21; SK-MEL-21, Melanoma): <-8.00 Molar
Log10 G150 (SK-OV-3): <-8.00 Molar
Log10 TGI (SK-OV-3): <-8.00 Molar
Log10 G150 (SN12C): <-8.00 Molar
Log10 TGI (SN12C): <-8.00 Molar
Log10 G150 (SNB-75): <-8.00 Molar
Log10 TGI (SNB-75): <-8.00 Molar
Log10 G150 (SR): <-8.00 Molar
Log10 TGI (SR): <-8.00 Molar
Log10 G150 (SW-620): <-8.00 Molar
Log10 TGI (SW-620): >-4.00 Molar
CC50 (T-47D; Homo sapiens, T47D, read-out: Log10 LC50 (converted)): > 100000 nM
Log10 G150 (T-47D; T-47D, Breast Cancer): <-8.00 Molar
Log10 TGI (T-47D; T-47D, Breast Cancer): >-4.00 Molar
CC50 (T86-0; [1]): > 100000 nM
Log10 G150 (T86-0; T86-0, Renal Cancer): <-8.00 Molar
Log10 TGI (T86-0; T86-0, Renal Cancer): -5.37 Molar
Log10 G150 (TK-10): <-8.00 Molar
Log10 TGI (TK-10): -7.13 Molar
Log10 G150 (U251): <-8.00 Molar
Log10 TGI (U251): -5.99 Molar
CC50 (UACC-62; Homo sapiens, UACC-62, read-out: Log10 LC50 (converted)): 91.2 nM
Log10 G150 (UACC-62; UACC-62, Melanoma): <-8.00 Molar
Log10 TGI (UACC-62; UACC-62, Melanoma): <-8.00 Molar

Reference: patent US7572606B1 (Nereus Pharmaceuticals, Inc., priority 2005, dated 2009)
